Test results reported in US20080009500A1, “Alpha-helix mimetics and methods relating to the treatment of fibrotic disorders” (priority 2005, published 2008).

Experiments:
S100A4 = assay: RT-PCR for S100A4 in bleomycin treated mice; type: in vivo; conditions: 5 mgs/Kg/day s.c.
From the text: (§1) FIGS. 16 and 17 show RT-PCR data for S100A4 (FIG. 16) and collagen1A2 (FIG. 17), which are increased in the bleomycin treated mice (treated with saline control).

collagen1A2 = assay: RT-PCR for collagen1A2 in bleomycin treated mice; type: in vivo; conditions: 5 mgs/Kg/day s.c.
From the text: as §1

Aquaporin 5 = Aquaporin 5 immunostaining of lung tissue in the bleomycin animal model; type: in vivo, mice; conditions: bleomycin and ICG-001 vs bleomycin alone
Experimental: The aquaporins are water channels expressed in a variety of cell types. Aquaporin 5 is involved in the transportation of water across the apical surface of the alveolar epithelium and the epithelia of the submucosal glands in the upper airway and nasopharynx. (Krane, C. M., P.N.A.S. 98:14192-4, 2001; Yang, F. J. Biol. Chem. 278:32173-80, 2003). Because aquaporin 5 is a marker of Type 1 (differentiated) lung epithelium, its expression was assayed in lung tissue treated with bleomycin (FIG. 22A), bleomycin and ICG-001 (FIG. 22B), and saline (FIG. 22C), using the animal model as described in Example 2 (FIG. 15), and immunostaining with an antibody specific for Aquaporin 5.

[1] = test system: bleomycin induced fibrosis in C57/B16 mice; assay: Murine model of bleomycin induced pulmonary fibrosis, lung sections stained for collagen (trichrome), body weight, survival; type: in vivo
Experimental: Murine models of bleomycin induced fibrosis have been developed in order to study fibrotic disease progression.
(§2) Using this murine model of pulmonary fibrosis in transgenic Bat-Gal mice, ICG-001 (5 mg/Kg/day, administered via minipump) blocked >95% of bleomycin-induced TCF/β-catenin transcription.
There is an absence of airway epithelium in lower left compared to upper left (see arrow heads) and extensive collagen deposition (lower left). On the sixth day, either saline (upper right) or ICG-001 (5 mgs/Kg/day) was administered for 10 days after which the mice were sacrificed and sectioned. Of interest is the upper right (saline treatment) showing lack of normal airway epithelialization, extensive collagen deposition and intra-airway hypercellularity (fibroblasts and inflammatory influx).
The procedures were performed using the animal model as described in Example 2 (FIG. 15), and the sectioned lungs were stained for collagen.

[2] = test system: TCF/β-catenin transcription; assay: Bleomycin model in Bat-Gal transgenic mice, X-Gal staining of lung sections (TCF/catenin-driven beta-galactosidase read-out); type: in vivo
Experimental: as §2
These mice have a Beta-Galactosidase transgene driven by a TCF/Catenin driven promoter (i.e. a read out for activated Wnt/catenin signaling). The mice were given intratracheal saline or bleomycin and either treated with ICG-001 (5 mgs/Kg/day subcutaneously) or saline as vehicle control. The mice were sacrificed and the lungs sectioned and stained with X-Gal (blue color) A) intratracheal bleo+saline. B) intracheal bleo+ICG-001 C) saline +saline.
The dose was selected because ICG-001 reduces TCF/β-Catenin driven β-Galactosidase expression >95% at 5 mgs/Kg/day.

IPF patient fibroblasts = assay: Western blots for S100A4 and E-Cadherin on whole cell lysates of cultured IPF fibroblasts; type: cell-based, human
Experimental: Western blots for S100A4 (also know as FSP-1 or fibroblast specific protein-1) and E-Cadherin were performed on whole cell lysates (FIG. 20).

[3] = C57/B16 mice, bleomycin 5 days, then 5 mgs/Kg/day for 10 days
[4] = bleomycin and ICG-001 treatment
[5] = IPF patient fibroblasts, RPMI 1640+10% FBS, 2 days

In the case of `O=C1[C@H](Cc2ccc(O)cc2)N2C(=O)CCN(C(=O)NCc3ccccc3)[C@H]2CN1Cc1cccc2ccccc12` [ICG-001], the “S100A4 message (RT-PCR)” value (S100A4) is reported as “reduced essentially to negative control”, the “collagen1A2 message (RT-PCR)” value (collagen1A2) is reported as “reduced essentially to negative control” and the “aquaporin 5 expression (immunostaining)” value (Aquaporin 5) is reported as “greatly increased”. For the same molecule, the mortality ([1]; 5 mg/Kg/day) was “reduced mortality”, the disease progression ([1]; 5 mg/Kg/day, judged by mortality, histopathology and endogenous gene expression) was “not only halted but reversed disease progression” and the “airway appearance in trichrome-stained lung sections” value [1, 3] was “essentially normal”. For the same molecule, the body weight [1, 3] was “regained normal body weight”, the “collagen levels in lung sections” value [1, 3] was “normal collagen levels” and the survival ([1]; C57/B16 mice, bleomycin 5 days, then 5 mgs/Kg/day for 10 days, untreated controls did not survive) was “survived”. For the same molecule, the “alveolar fibrosis (lungs stained for collagen)” value [1, 4] was “prevented alveolar fibrosis”, the “interstitial fibrosis (lungs stained for collagen)” value [1, 4] was “prevented interstitial fibrosis” and the fibrosis ([1]; over the 25 days of treatment) was “reversed fibrosis”. For the same molecule, the “reduction of TCF/β-Catenin driven β-Galactosidase expression” value ([2]; 5 mgs/Kg/day) was greater than 95%, the “bleomycin-induced TCF/β-catenin transcription blocked” value ([2]; transgenic Bat-Gal mice, 5 mg/Kg/day via minipump) was greater than 95% and the “S100A4 expression (whole cell lysates)” value (IPF patient fibroblasts; ATCC IPF cells, RPMI1640+10% FBS, 2 days) was “decreased S100A4 expression”. The “E-cadherin expression at the mRNA level” value (IPF patient fibroblasts; IPF patient fibroblasts) was “also true at the mRNA level”, the “E-cadherin expression (Western blot, whole cell lysates)” value (IPF patient fibroblasts; [5]) was “increased E-cadherin expression” and the “S100A4 expression (Western blot, whole cell lysates)” value (IPF patient fibroblasts; [5]) was “decreased S100A4 expression”.
